According to PubChem BioAssay (NCI):
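In this assay, cells in 96-well plates receive the compound at five concentrations for 48 hours. Endpoints are linearly interpolated between the surrounding concentrations. GI50 marks 50% less growth. TGI marks complete inhibition of growth.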

Columns and labels:
Test in all cases: DTP human tumour cell line panel, 48 h
HCC-2998 colon = system: HCC-2998 colon
SW-620 colon = system: SW-620 colon
EKVX NSCLC = system: EKVX NSCLC
MDA-MB-435 = system: MDA-MB-435
OVCAR-8 ovarian = system: OVCAR-8 ovarian
SF-539 CNS = system: SF-539 CNS
PC-3 prostate = system: PC-3 prostate
K-562 leukemia = system: K-562 leukemia
HOP-62 NSCLC = system: HOP-62 NSCLC
MALME-3M melanoma = system: MALME-3M melanoma

SMILES	TGI (HCC-2998 colon) [µM]	TGI (SW-620 colon) [µM]	TGI (EKVX NSCLC) [µM]	TGI (MDA-MB-435) [µM]	TGI (OVCAR-8 ovarian) [µM]	TGI (SF-539 CNS) [µM]	TGI (PC-3 prostate) [µM]	TGI (K-562 leukemia) [µM]	TGI (HOP-62 NSCLC) [µM]	TGI (MALME-3M melanoma) [µM]	GI50 (HCC-2998 colon) [µM]	GI50 (EKVX NSCLC) [µM]	GI50 (MDA-MB-435) [µM]	GI50 (SF-539 CNS) [µM]	GI50 (K-562 leukemia) [µM]
Cc1ccc(S(=O)(=O)N(CC(O)COc2ccccc2)c2ccc(F)cc2F)cc1 (stereo not given)	29.7	31.9	35.7	31.4	31.3	30	25.3	> 100	30.1	36	–	–	–	–	–
O=c1cc(NCc2ccncc2)[nH]c(=O)[nH]1	> 100	> 100	> 100	> 100	> 100	> 100	> 100	> 100	> 100	> 100	–	–	–	–	–
COC(=O)CCCC(=O)NC1=C(NCc2ccccc2)C(=O)c2ccccc2C1=O	> 100	> 100	> 100	> 100	> 100	> 100	–	> 100	–	37.7	–	–	–	–	–
CCN(CC)c1nc(N(C)C)c2ccccc2n1	38.3	> 100	51.1	> 100	> 100	96.1	> 100	44.5	> 100	> 100	–	–	–	–	–
CC1OC2OC3C(OCC(O)C3O)OC(=O)[C@]34CCC(C)(C)CC3C3=CCC5[C@@]6(C)C[C@H](O)[C@H](OC7OC(CO)C(O)C(O)C7OC7OCC(OC(=O)CC(C)(O)CC(=O)OC1C(OC1OC(CO)C(O)C(O)C1O)C2O)C(O)C7O)[C@@](C)(CO)C6CC[C@@]5(C)[C@]3(C)CC4 (stereo not given in full)	8.52	20.3	–	11.4	23.6	26.8	16.9	–	8.75	17.5	–	–	–	–	–
CCOC(=O)C(=O)C(=O)NN(C)C1=NCCN1	> 100	> 100	> 100	> 100	> 100	> 100	> 100	> 100	> 100	> 100	–	–	–	–	–
O=C(c1ccco1)N(C(=S)OC12CC3CC(CC(C3)C1)C2)c1ccccc1	72	> 100	50.1	90.3	> 100	41.7	60.3	> 100	> 100	65.7	–	–	–	–	–
COC1(OC)c2no[n+]([O-])c2C(OC)(OC)c2c1no[n+]2[O-]	41.6	35.8	41.6	36.2	26.7	38	66.6	> 100	35.8	29.4	–	–	–	–	–
CC(C)C(=O)Oc1cc2c(=O)oc3c(OC(=O)C(C)C)c(OC(=O)C(C)C)cc4c(=O)oc(c1OC(=O)C(C)C)c2c34	> 100	> 100	> 100	> 100	> 100	> 100	> 100	> 100	> 100	> 100	–	–	–	–	–
COc1ccc(C(O)CC(O)(C(F)(F)F)C(F)(F)F)cc1 (stereo not given)	> 100	> 100	> 100	> 100	> 100	55.3	55.7	53.6	> 100	49.1	–	–	–	–	–
C=C1C(=O)O[C@H]2[C@H]3O[C@@H](C[C@@H]12)[C@](C)(O)CC[C@@H]1O[C@@]1(C)CCC[C@H]3C	55.5	42.1	54.6	42.2	47.5	53.7	> 100	> 100	> 100	31	–	–	–	–	–
C(/Cc1ccc2c(c1)OCO2)=N\NC1=NCCCN1	> 100	> 100	> 100	> 100	> 100	> 100	> 100	> 100	> 100	> 100	–	–	–	–	–
CCCNc1ncnc2[nH]ncc12	> 100	> 100	> 100	> 100	> 100	> 100	> 100	> 100	> 100	> 100	–	–	–	–	–
Cc1ccc(/C(O)=C/c2nc3ccc([N+](=O)[O-])cc3nc2/C=C(\O)c2ccc(C)cc2)cc1	> 100	> 100	> 100	> 100	> 100	> 100	> 100	> 100	75.8	> 100	–	–	–	–	–
CC(C)(C)OC(=O)n1cc(C2CN(O)C(=O)C23CCC(=O)N3Cc2ccccc2)c2ccccc21 (stereo not given)	–	> 100	47.7	> 100	–	> 100	> 100	> 100	> 100	> 100	–	–	–	–	–
CN(C)c1ccc(/C=C2\N=C(c3ccccc3)N(c3ccc4c(c3)Sc3cc(N5C(=O)/C(=C/c6ccc(N(C)C)cc6)N=C5c5ccccc5)ccc3N4)C2=O)cc1	37.9	> 100	74.8	58	34.4	32.8	34.4	96.4	32.1	–	–	–	–	–	–
CC(=O)OC1CC2C(=O)C(=O)C1(C)C2(C)C (stereo not given)	> 100	> 100	> 100	> 100	> 100	–	> 100	> 100	> 100	> 100	–	–	–	–	–
CC(C)OC1OC(CO)C(O)CC1n1cc(F)c(=O)[nH]c1=O (stereo not given)	> 100	> 100	> 100	> 100	> 100	> 100	> 100	86.4	–	> 100	–	–	–	–	–
CO[C@]1(CN2CCN3CCCC[C@@H]3C2)/C=C/C[C@H](C)[C@@H](C)S(=O)(=O)NC(=O)c2ccc3c(c2)N(C[C@@H]2CC[C@H]21)C[C@@]1(CCCc2cc(Cl)ccc21)CO3	2.73	–	5.1	2.42	–	2.72	–	6.57	–	–	1.4	1.55	1.05	1.39	2.28
C=C(C)[C@@H]1CC[C@]2(C(=O)O)CC[C@]3(C)[C@H](CCC4[C@@]5(C)CC[C@H](C(=O)/C=C/c6ccc(O)c(O)c6)C(C)(C)[C@@H]5CC[C@]43C)[C@@H]12 (stereo not given in full)	7	–	> 100	16.7	54.5	–	21.8	> 100	17	–	–	–	–	–	–
CC(=O)CC(=O)CCC(=O)O	> 100	> 100	> 100	–	> 100	> 100	–	> 100	–	> 100	–	–	–	–	–
